From patent US7402600B2, “Nitroderivatives of cardiovascular agents” (NicOx S.A., priority 1999, dated 2008)
Entries after “also recorded” stand apart in the source; their conditions may differ. Read-outs that look alike come from different tables or passages of the source.

Experiments:
[1] = Test 4: inhibition of radical production from DPPH; details: tested substance 100 μM in methanol, 30 minutes, absorbance 517 nm
Experimental: Test 4 is a colorimetric test which must not be satisfied by the precursor of B or B1 (precursor of the X2 or X2a of the formulas (I) and (II) respectively). The inhibition of the production of radicals from DPPH (2,2-diphenyl-1-picryl-hydrazyl) is described in M. S. Nenseter et Al., Atheroscler. Thromb. 15, 1338-1344, 1995. 100 μM solutions in methanol of the tested substances are prepared, and an aliquot of each of said solutions is added to a DPPH solution in methanol 0.1 M. After having stored the solutions at room temperature away from light for 30 minutes, their absorbances are read at the wave length of 517 nm, together with that of the corresponding DPPH solution at the same concentration. The absorbance decrease with respect to that of the solution of DPPH at the same concentration of the test solutions is determined. The effectiveness of the tested compound in inhibiting formation of radicals by DPPH is expressed by the following formula: (1−AS/AC)×100 wherein AS and AC are respectively the absorbance values of the solution containing the test compound together with DPPH and of the solution containing only DPPH. Test 4 is satisfied when the inhibition is equal or greater than 50%.
Test 4: Inhibition of the Radical Production from DPPH of Some Substances Used as Precursors of B or B1 (Ref. Formulas I and II of the Invention)
The method is based on a calorimetric test in which DPPH (2,2-diphenyl-1-picryl-hydrazyl) is used as the compound-forming radicals (M. S. Nenseter et Al., Atheroscler. Thromb. 15, 1338-1344, 1995).
Solutions in methanol of the tested substances at a final concentration 100 μM are initially prepared. 0.1 ml of each of these solutions are added to aliquots of 1 ml of a methanol solution 0.1 M of DPPH and then the final volume is brought to 1.5 ml. After having stored the solutions at room temperature away from light for 30 minutes, the absorbance at the wave length of 517 nm is read. It is determined the absorbance decrease with respect to the absorbance of a solution containing the same concentration of DPPH.
The efficacy of the test compound to inhibit the production of radicals, or antiradical activity, is expressed by the following formula: (1−AS/AC)×100 wherein AS and AC are, respectively, the absorbance values of the solution containing the test compound together+DPPH and of the solution containing only DPPH.

[2] = test system: Human endothelial cells of the umbilical vein; test: Test 2 (CIP): apoptosis (DNA fragmentation) induced by cumene hydroperoxide in endothelial cells; format: cell-based; details: for activity at 100 µM: Homo sapiens, Endothelial cell, 1 h, read-out: Apoptosis % with respect to the controls treated only with CIP; for inhibition of apoptosis induced by CIP (in words, t Student p<0.01): CIP 5 mM
gastrointestinal mucosa = test: Test 1 (NEM): gastric tolerability of precursor drugs in rats treated or not with N-ethylmaleimide; details: rat, in vivo, 24 h
Experimental: The animals (rats) are distributed in the following groups (no. 10 animals for group):
• 1° group: treatment: only carrier (aqueous suspension 1% w/v of carboxymethylcellulose, dose: 5 ml/Kg when the drug is administered by os, or a physiologic solution when parenterally administered, i.e. by subcutaneous, intraperitoneal, intravenous or intramuscular route), • 2° group: treatment: carrier as above defined+NEM, B) Groups Treated with the Drug: • group I: treatment: carrier+drug, • group II: treatment: carrier+drug+NEM.
The administration routes are those known for the drug, and can be the oral or subcutaneous, intraperitoneal, intravenous or intramuscular route.
(§1) The animals are sacrificed after 24 hours and then one proceeds to the evaluation of the damage to the gastrointestinal mucosa.
Test 1—Experimental Model in Vivo with N-ethylmaleimide (NEM): Study of the Gastric Tolerability of Some Drugs Screened as Precursors of the Compounds of the Invention.
The animals (rats, weight about 200 g) are distributed in the following groups (No. 10 animals for group):
• 1° group: treatment: only carrier (aqueous suspension 1% w/v of carboxymethylcellulose, dose: 5 ml/Kg when the drug is administered by os, physiologic solution when by parenteral route), • 2° group: treatment: carrier+NEM B) Groups Administered with Each Drug: • group I: treatment: carrier+drug, • group II: treatment: carrier+drug+NEM.
The drug is administered one hour later, in suspension in the carrier. Animals are sacrificed after 24 hours and evaluation of the damage to the gastrointestinal mucosa is made by counting the number of rats, inside each group, with lesions to the stomach at a visual inspection. The total number of said rats is then divided by the total number of rats of the group and multiplied by 100.

gastric mucosa = test: Example F6: gastric tolerability of invention compounds versus precursor drugs, with or without L-NAME; format: in vivo, rats
Text: Gastric Tolerability Test of the Compounds According to the Invention in the Confront of the Corresponding Precursor Drugs in Conditions of Endothelial Dysfunctions Induced by L-NAME (N^w-nitro-L-arginine-methyl ester).

[3] = test system: gastrointestinal mucosa, GPT, blood pressure; details: rat, in vivo
Experimental: The endothelial dysfunction is evaluated by determining the damage to the gastrointestinal mucosa, the hepatic damage and blood hypertension induced by administration of L-NAME.
The animals (rats) are divided in groups as herein below shown. The group receiving L-NAME is treated for 4 weeks with said compound dissolved at a concentration of 400 mg/litre in drinking water. The following groups are constituted (No. 10 animals for group):
(§2) • 1° group: only carrier (aqueous suspension 1% w/v of carboxymethylcellulose, dose: 5 ml/Kg when the drug is administered by os, phisiologic solution when administered parenterally), • 2° group: carrier+L-NAME, B) Groups Administered with the Drug: • 3° group: carrier+drug, • 4° group: carrier+drug+L-NAME.
The administration routes are those known for the drug, and can be the oral or subcutaneous, intraperiteneal, intravenous or intramuscular route. […] The drug is administered once a day for 4 weeks.
At the end of the four weeks treatment access to water is prevented and after 24 hours the animals are sacrificed.
One hour before the sacrifice blood-pressure is determined, and a blood pressure increase is taken as an evaluation of the damage to vascular endothelium. […] The hepatic damage is determined by evaluation of the glutamic-pyruvic transaminase (GPT increase) after sacrifice.
Test 3-Experimental in Vivo Model with N^w-nitro-L-arginine-methyl ester (L-NAME): Gastric Tolerability (Gastrointestinal Damage Incidence), Hepatic (GPT Dosage, Glutamic-pyruvic Transaminase) and Cardiovascular (Blood Pressure) Tolerability of Some Drugs Screened as Precursors of the Compounds of the Invention.
The endothelial dysfunction is evaluated by determining the damage induced by L-NAME administration to the gastrointestinal mucosa, the hepatic damage (GPT increase), and the vascular endothelium or cardiovascular damage as blood hypertension.
The animals (rats, average weight 200 g) are divided in groups as herein below described. The group receiving L-NAME is treated for 4 weeks with said compound dissolved at the concentration of 400 mg/litre in drinking water. The following groups (No. 10 animals for group) are constituted:
as §2, with “group: treatment:” for “group:”, “physiologic” for “phisiologic”, “by parenteral route),” for “administered parenterally),”, “Treated” for “Administered”
Each drug is administered once a day for 4 weeks.
At the end of the four weeks access to water is prevented and after 24 hours the animals are sacrificed.
One hour before the sacrifice blood pressure is determined and a blood pressure increase is taken as an indication of a damage being occurred to vascular endothelium.
The hepatic damage is determined by evaluation after the sacrifice of the glutamic-pyruvic transaminase (GPT increase).
The % gastric lesions have been determined as in Test 1.

in vivo = details: rat, in vivo, po
Experimental: as §1

[4] = drug 10^-4 M, CIP 5 mM for one hour, DNA fragmentation
[5] = rats, dose and route as in the column beside (higher doses than in L-NAME animals)

## O=C1NC(C(=O)O)CS1 (stereo not shown) [2-oxo-4-thiazolidin carboxylic acid]
[1]
  % inhibition radical production from DPPH: 0%

## Nc1nc2c(ncn2COCCO)c(=O)[nH]1 [Aciclovir]
[2]; [4]
  activity at 100 µM: 95%
[2]; drug 10^-4 M
  inhibition of apoptosis induced by CIP (in words, t Student p<0.01): do not significantly inhibit apoptosis

## NCCCC(O)(P(=O)(O)O)P(=O)(O)O [Alendronate]
Gastrointestinal mucosa
  Gastro-enteropathy (% incidence) without NEM: 0%
[2]; drug 10^-4 M
  inhibition of apoptosis induced by CIP (in words, t Student p<0.01): do not significantly inhibit apoptosis
Gastric mucosa; rat, in vivo, 4 weeks
  % gastropathy, animals not treated with L-NAME: 90%
  % gastropathy, animals treated with L-NAME: 70%

## CC1(C)S[C@@H]2[C@H](NC(=O)[C@H](N)c3ccccc3)C(=O)N2[C@H]1C(=O)O [Ampicilline]
[2]; [4]
  activity at 100 µM: 94%
[2]; drug 10^-4 M
  inhibition of apoptosis induced by CIP (in words, t Student p<0.01): do not significantly inhibit apoptosis

## O=C(O)COCCN1CCN(C(c2ccccc2)c2ccc(Cl)cc2)CC1 (stereo not shown) [Cetirizine]
[2]; [4]
  activity at 100 µM: 115%
[2]; drug 10^-4 M
  inhibition of apoptosis induced by CIP (in words, t Student p<0.01): do not significantly inhibit apoptosis

## N[C@@H](CS)C(=O)O [Cisteine]
[1]
  % inhibition radical production from DPPH: 100%

## COC(=O)[C@H](c1ccccc1Cl)N1CCc2sccc2C1 [Clopidogrel]
[2]; [4]
  activity at 100 µM: 110%
[2]; drug 10^-4 M
  inhibition of apoptosis induced by CIP (in words, t Student p<0.01): do not significantly inhibit apoptosis

## O=C(O)Cc1ccccc1Nc1c(Cl)cccc1Cl [Diclofenac]
Gastric mucosa; rat, in vivo, 4 weeks
  % gastropathy, animals not treated with L-NAME: 70%
  % gastropathy, animals treated with L-NAME: 100%

## Cn1c(=O)c2c(ncn2CC(O)CO)n(C)c1=O (stereo not shown) [Diphylline]
[2]; drug 10^-4 M
  inhibition of apoptosis induced by CIP (in words, t Student p<0.01): do not significantly inhibit apoptosis
[2]; [4]
  Apoptosis % with respect to the controls treated only with CIP: 95%

## COc1cccc2c1C(=O)c1c(O)c3c(c(O)c1C2=O)C[C@@](O)(C(=O)CO)C[C@@H]3O[C@H]1C[C@H](N)[C@H](O)[C@H](C)O1 [Doxorubicin]
[3]
  GPT % without L-NAME: 195%
[3]; 4 weeks
  Gastroenteropathy % without L-NAME: 30%

## CCOC(=O)[C@H](CCc1ccccc1)N[C@@H](C)C(=O)N1CCC[C@H]1C(=O)O [Enalapril]
[2]; [4]
  activity at 100 µM: 80%
[2]; drug 10^-4 M
  inhibition of apoptosis induced by CIP (in words, t Student p<0.01): do not significantly inhibit apoptosis

## O=C(Cc1ccccc1Nc1c(Cl)cccc1Cl)NC(Cc1c[nH]cn1)C(=O)OCCCCO[N+](=O)[O-] (stereo not shown) [Example 4, [2-[(2,6-dichlorophenyl)amino]-benzeneacetyloxy]-(L)-histidine 4-(nitroxy)butyl ester]
Gastric mucosa; rats, L-NAME
  % gastropathy, animals treated with L-NAME: 0%
Gastric mucosa; [5]
  % gastropathy, animals not treated with L-NAME: 0%

## O=C(CCC(=O)OCCCCO[N+](=O)[O-])Nc1c2c(nc3ccccc13)CCCC2 [Example 5]
Gastric mucosa; rats, L-NAME
  % gastropathy, animals treated with L-NAME: 0%
Gastric mucosa; [5]
  % gastropathy, animals not treated with L-NAME: 20%

## O=C(CCC(=O)OCCCCO[N+](=O)[O-])NCCCC(O)(P(=O)(O)O)P(=O)(O)O [Example 6, [4-amino-[4-oxo-(4-nitroxybutyloxy)butanoyl]-1-hyroxybutyliden] biphosphonic acid]
Gastric mucosa; rats, L-NAME
  % gastropathy, animals treated with L-NAME: 10%
Gastric mucosa; [5]
  % gastropathy, animals not treated with L-NAME: 20%

## Nc1c(Br)cc(Br)cc1CNC1CCC(OC(=O)CCC(=O)OCCCCO[N+](=O)[O-])CC1 (stereo not shown) [Example 7, [4-oxo-(4-nitroxybutyloxy)butanoyl4-(2-amino-3,5-dibromophenyl)-methylamino] cyclohexanol ester]
Gastric mucosa; rats, L-NAME
  % gastropathy, animals treated with L-NAME: 0%
Gastric mucosa; [5]
  % gastropathy, animals not treated with L-NAME: 10%

## COc1cc(/C=C/C(=O)O)ccc1O [Ferulic acid]
[1]
  % inhibition radical production from DPPH: 100%

## O=C(O)c1cc(O)ccc1O [Gentisic acid]
[1]
  % inhibition radical production from DPPH: 80%

## COc1ccc2c(c1)c(CC(=O)O)c(C)n2C(=O)c1ccc(Cl)cc1 [Indomethacin]
Gastrointestinal mucosa
  Gastro-enteropathy (% incidence) without NEM: 0%
[2]; drug 10^-4 M
  inhibition of apoptosis induced by CIP (in words, t Student p<0.01): not significantly different with respect to that of the controls
[2]; drug 10^-4 M, listed as indomethacin
  inhibition of apoptosis induced by CIP (in words, t Student p<0.01): do not significantly inhibit apoptosis
In vivo
  MTD at 24 h: 7.5 mg/kg

## Nc1ccc(O)c(C(=O)O)c1 [Mesalamine]
Gastrointestinal mucosa
  Gastro-enteropathy (% incidence) without NEM: 0%
[2]; drug 10^-4 M
  inhibition of apoptosis induced by CIP (in words, t Student p<0.01): inhibit apoptosis; also recorded: inhibits the apoptosis induced by CIP

## CC(=O)N[C@@H](CS)C(=O)O [N-acetylcisteine]
[1]; listed as N-acetylcysteine
  % inhibition radical production from DPPH: 100%

## NC(=O)c1cccnc1 [Nicotinamide]
[2]; drug 10^-4 M
  inhibition of apoptosis induced by CIP (in words, t Student p<0.01): do not significantly inhibit apoptosis

## CC(=O)Nc1ccc(O)cc1 [Paracetamol]
[2]; drug 10^-4 M
  inhibition of apoptosis induced by CIP (in words, t Student p<0.01): do not significantly inhibit apoptosis; also recorded: not significantly different with respect to that of the controls

## CC(C)(C)NCC(O)c1ccc(O)c(CO)c1 (stereo not shown) [Salbutamol]
[2]; drug 10^-4 M
  inhibition of apoptosis induced by CIP (in words, t Student p<0.01): do not significantly inhibit apoptosis

## CCC(C)(C)C(=O)O[C@H]1C[C@@H](C)C=C2C=C[C@H](C)[C@H](CC[C@@H]3C[C@@H](O)CC(=O)O3)[C@H]21 [Simvastatine]
[2]
  activity at 100 µM: 72%
